The numbers were not newly measured in US20080097335A1, “OCULAR IMPLANT DELIVERY ASSEMBLIES” (ALLERGAN, INC., priority 2006, published 2008), which cites them from elsewhere.

For this data set the following is noted: efficacy in vivo; 25 mg dose of hydrocortisone equivalent to 1 mg dose of dexamethasone.

As to `C[C@]12CCC(=O)C=C1CC[C@@H]1[C@@H]2[C@@H](O)C[C@@]2(C)[C@H]1CC[C@]2(O)C(=O)CO` [hydrocortisone], the “potency relative to dexamethasone” value is “approximately twenty-five fold less potent than dexamethasone”.
